Data published in patent US20060069132A1, “Azolecarboxamide herbicides” (priority 2004, published 2006).

Columns and labels:
[1] = test system: giant foxtail; experiment: Test B pre-/postemergence herbicide test; assay type: in vivo, Setaria faberi; conditions: for Foxtail, Giant plant response rating: postemergence, visual rating, scale 0 (no effect) to 100 (complete control)
How it was run: (§1)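 Evaluation is visual, comparing treated with control plants on a scale where 0 means no effect and 100 means full control. Treatments were preemergence, or postemergence on seedlings 2–18 cm tall, and held 13–15 days in the greenhouse.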

[2] = test system: pigweed; experiment: Test B pre-/postemergence herbicide test; assay type: in vivo, Amaranthus retroflexus; conditions: for Pigweed plant response rating: postemergence, visual rating, scale 0 (no effect) to 100 (complete control)
How it was run: as §1

[3] = test system: morningglory; experiment: Test B pre-/postemergence herbicide test; assay type: in vivo, Ipomoea coccinea; conditions: for Morningglory plant response rating: postemergence, visual rating, scale 0 (no effect) to 100 (complete control)
How it was run: (§2)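 Formulation: non-phytotoxic solvent mix with surfactant. Timing: preemergence on seed and postemergence on 2–18 cm plants, applied concurrently. Readout after 13–15 d greenhouse: visual 0–100 control rating against controls.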

[4] = test system: wheat; experiment: Test B postemergence herbicide test; assay type: in vivo, Triticum aestivum; parameters: key to Wheat plant response rating: 0 = no effect, 100 = complete control; conditions: postemergence, visual rating, scale 0 (no effect) to 100 (complete control)
How it was run: (§3)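 Each value is a visual 0–100 response rating taken against controls 13 to 15 days after treatment in the greenhouse. Plants received formulated chemical postemergence at the 1- to 4-leaf stage or, in flooded paddy, at the 2-leaf stage.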

[5] = test system: wild oat; experiment: Test B postemergence herbicide test; assay type: in vivo, Avena fatua; conditions: postemergence, visual rating, scale 0 (no effect) to 100 (complete control)
How it was run: as §3

[6] = test system: ducksalad; experiment: Test B flooded paddy test; assay type: in vivo, Heteranthera limosa; conditions: 1000 g ai/ha, visual rating, scale 0 to 100 (0 no effect, 100 complete control), 13 to 15 days
How it was run: (§4)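 Scale 0–100: zero equals no visible effect, 100 complete control, judged by eye relative to controls. Timing: 13 to 15 days in greenhouse post-treatment. Growth stage at spraying: two leaves (paddy) or one to four leaves, 2–18 cm (postemergence).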

[7] = test system: lambsquarters; experiment: Test B pre-/postemergence herbicide test; assay type: in vivo, Chenopodium album
How it was run: as §1

[8] = test system: barnyardgrass; experiment: Test B flooded paddy test; assay type: in vivo, Echinochloa crus-galli; conditions: 1000 g ai/ha, visual rating, scale 0 to 100 (0 no effect, 100 complete control), 13 to 15 days
How it was run: as §4

[9] = test system: small flower umbrella sedge; experiment: Test B flooded paddy test; assay type: in vivo, Cyperus difformis; conditions: 1000 g ai/ha, visual rating, scale 0 to 100 (0 no effect, 100 complete control), 13 to 15 days
How it was run: as §4

[10] = test system: smallflower umbrella sedge; experiment: Test C flooded paddy test; assay type: in vivo, Cyperus difformis
[11] = test system: corn; experiment: Test B pre-/postemergence herbicide test; assay type: in vivo, Zea mays; conditions: for Corn plant response rating: postemergence, visual rating, scale 0 (no effect) to 100 (complete control)
How it was run: as §1

[12] = test system: velvetleaf; experiment: Test B pre-/postemergence herbicide test; assay type: in vivo, Abutilon theophrasti; conditions: for Velvetleaf plant response rating: postemergence, visual rating, scale 0 (no effect) to 100 (complete control)
How it was run: as §1

[13] = test system: barnyardgrass; experiment: Test B pre-/postemergence herbicide test; assay type: in vivo, Echinochloa crus-galli; conditions: for Barnyardgrass plant response rating: postemergence, visual rating, scale 0 (no effect) to 100 (complete control)
How it was run: as §2

[14] = test system: rice; experiment: Test B pre-/postemergence herbicide test; assay type: in vivo, Oryza sativa; conditions: preemergence
How it was run: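 Plants compared with untreated controls 13–15 days post-treatment and given a visual 0–100 injury score. Applications: preemergence to seeds; postemergence at 1- to 4-leaf (2–18 cm); paddy species flooded, 2-leaf stage. Vehicle non-phytotoxic, surfactant included.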

[15] = test system: rice; experiment: Test C flooded paddy test; assay type: in vivo, Oryza sativa
How it was run: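 Injury scored visually against controls on a 0 (no effect) to 100 (complete control) scale, 12 to 14 days after treatment in greenhouse. Flooded paddy plants treated at 2-leaf stage; postemergence plants at 1- to 4-leaf stage, 2 to 18 cm tall.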

[16] = test system: barnyardgrass; experiment: Test C flooded paddy test; assay type: in vivo, Echinochloa crus-galli
How it was run: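 Ratings (0 = no effect, 100 = complete control) come from visual comparison with untreated plants after 12 to 14 days in the greenhouse. Treatment was postemergence at the 1- to 4-leaf stage (2–18 cm), or at the 2-leaf stage for the flooded paddy barnyardgrass.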

[17] = test system: cocklebur; experiment: Test B pre-/postemergence herbicide test; assay type: in vivo, Xanthium strumarium; conditions: for Cocklebur plant response rating: postemergence, visual rating, scale 0 (no effect) to 100 (complete control)
How it was run: as §2

[18] = test system: blackgrass; experiment: Test B postemergence herbicide test; assay type: in vivo, Alopecurus myosuroides; conditions: postemergence, visual rating, scale 0 (no effect) to 100 (complete control)
How it was run: as §4

[19] = test system: ducksalad; experiment: Test C flooded paddy test; assay type: in vivo, Heteranthera limosa
[20] = test system: large crabgrass; experiment: Test B pre-/postemergence herbicide test; assay type: in vivo, Digitaria sanguinalis; conditions: for Crabgrass, Large plant response rating: postemergence, visual rating, scale 0 (no effect) to 100 (complete control)
How it was run: as §1

[21] = test system: rice; experiment: Test B flooded paddy test; assay type: in vivo, Oryza sativa; conditions: 1000 g ai/ha, visual rating, scale 0 to 100 (0 no effect, 100 complete control), 13 to 15 days
How it was run: as §3

[22] = test system: Surinam grass; experiment: Test B pre-/postemergence herbicide test; assay type: in vivo, Urochloa decumbens; conditions: for Surinam Grass plant response rating: postemergence, visual rating, scale 0 (no effect) to 100 (complete control)
How it was run: as §1

[23] = 125 g ai/ha, 0 = no effect, 100 = complete control, preemergence
[24] = 500 g ai/ha, visual rating 0-100, 0 no effect, 100 complete control, preemergence
[25] = 62 g ai/ha, scale 0 to 100 (0 no effect, 100 complete control)
[26] = 125 g ai/ha, scale 0 to 100 (0 no effect, 100 complete control)
[27] = 250 g ai/ha, scale of 0 to 100, 0 is no effect, 100 is complete control
[28] = 500 g ai/ha, visual rating after 12 to 14 days, scale 0 to 100 (0 no effect, 100 complete control)

CCc1nn(C(C)(C)C)cc1C(=O)Nc1cc(C(=O)NC)ccc1F [Compound 194]
75: Plant response rating, Sedge, Umbrella [10, 28]
100: Plant response rating, Pigweed [2, 24] | Crabgrass, Large plant response rating (0 to 100 scale) [20, 23] | Plant response rating, Crabgrass, Large [20, 24]
20: Pigweed plant response rating ([2]; 125 g ai/ha) | Morningglory plant response rating (0 to 100 scale) [3, 23] | Velvetleaf plant response rating (0 to 100 scale) [12, 23] | Plant response rating, Cocklebur [17, 24]
0: Foxtail, Giant plant response rating ([1]; 125 g ai/ha) | Foxtail, Giant plant response rating ([1]; 500 g ai/ha) | Pigweed plant response rating (0 to 100 scale) [2, 23] | Wheat plant response rating ([4]; 125 g ai/ha) | Wheat plant response rating ([4]; 500 g ai/ha) | Oat, Wild plant response rating ([5]; 125 g ai/ha) | Oat, Wild plant response rating ([5]; 500 g ai/ha) | Sedge, Umbrella plant response rating [10, 25] | Sedge, Umbrella plant response rating [10, 26] | Corn plant response rating (0 to 100 scale) [11, 23] | Corn plant response rating ([11]; 125 g ai/ha) | Corn plant response rating ([11]; 500 g ai/ha) | Barnyardgrass plant response rating (0 to 100 scale) [13, 23] | Barnyardgrass plant response rating ([13]; 125 g ai/ha) | Rice plant response rating (0 to 100 scale) ([14]; 125 g ai/ha, 0 = no effect, 100 = complete control) | Rice plant response rating [15, 25] | Barnyardgrass plant response rating [16, 25] | Barnyardgrass plant response rating [16, 26] | Barnyardgrass plant response rating [16, 27] | Cocklebur plant response rating (0 to 100 scale) [17, 23] | Blackgrass plant response rating ([18]; 125 g ai/ha) | Blackgrass plant response rating ([18]; 500 g ai/ha) | Ducksalad plant response rating [19, 25] | Ducksalad plant response rating [19, 26] | Ducksalad plant response rating [19, 27] | Surinam Grass plant response rating (0 to 100 scale) [22, 23]
80: Plant response rating, Foxtail, Giant [1, 24] | Sedge, Umbrella plant response rating [9]
60: Plant response rating, Velvetleaf [12, 24] | Rice plant response rating [21] | Plant response rating, Surinam Grass [22, 24]
50: Plant response rating, Morningglory [3, 24] | Barnyardgrass plant response rating [8] | Plant response rating, Corn [11, 24]
45: Plant response rating, Rice [15, 28]
10: Foxtail, Giant plant response rating (0 to 100 scale) [1, 23] | Morningglory plant response rating ([3]; 125 g ai/ha) | Morningglory plant response rating ([3]; 500 g ai/ha) | Velvetleaf plant response rating ([12]; 125 g ai/ha) | Velvetleaf plant response rating ([12]; 500 g ai/ha) | Barnyardgrass plant response rating ([13]; 500 g ai/ha) | Cocklebur plant response rating ([17]; 125 g ai/ha) | Cocklebur plant response rating ([17]; 500 g ai/ha) | Crabgrass, Large plant response rating ([20]; 125 g ai/ha) | Crabgrass, Large plant response rating ([20]; 500 g ai/ha) | Surinam Grass plant response rating ([22]; 125 g ai/ha) | Surinam Grass plant response rating ([22]; 500 g ai/ha)
25: Rice plant response rating [15, 26] | Rice plant response rating [15, 27] | Plant response rating, Barnyardgrass [16, 28]
35: Sedge, Umbrella plant response rating [10, 27]
70: Plant response rating, Rice ([14]; 500 g ai/ha, visual rating 0-100, 0 no effect, 100 complete control)
40: Plant response rating, Ducksalad [19, 28]
90: Ducksalad plant response rating [6] | Plant response rating, Barnyardgrass [13, 24]
30: Pigweed plant response rating ([2]; 500 g ai/ha) | Lambsquarters plant response rating (0 to 100 scale) [7, 23] | Lambsquarters plant response rating ([7]; postemergence, 500 g ai/ha, visual rating, scale 0 (no effect) to 100 (complete control))
